Read-outs that look alike come from different tables or passages of the source.
Tests used:
NDM-1 = NDM-1 (Klebsiella pneumoniae, UniProt C7C422); experiment: biochemical; type: biochemical; settings: fluorescence assay, CCF2-FA substrate, 1 pM enzyme, 2 hours at 25° C.; read-out: NDM-1 IC50
How it was run: (§1)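 Fluorescence assay of metallo-β-lactamase activity using CCF2-FA, a cephalosporin-linked 7-hydroxycoumarin–fluorescein substrate. Inhibitor, enzyme and substrate were incubated together for 2 hours at 25° C. IC50 came from a 4-parameter fit of inhibition versus inhibitor concentration.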

IMP-1 = IMP-1 (Serratia marcescens, UniProt P52699); experiment: biochemical; type: biochemical; settings: CCF2-FA substrate, 2 pM enzyme, 2 hours at 25° C.
Sequence of IMP-1 (P52699 whole entry, looked up, species assumed): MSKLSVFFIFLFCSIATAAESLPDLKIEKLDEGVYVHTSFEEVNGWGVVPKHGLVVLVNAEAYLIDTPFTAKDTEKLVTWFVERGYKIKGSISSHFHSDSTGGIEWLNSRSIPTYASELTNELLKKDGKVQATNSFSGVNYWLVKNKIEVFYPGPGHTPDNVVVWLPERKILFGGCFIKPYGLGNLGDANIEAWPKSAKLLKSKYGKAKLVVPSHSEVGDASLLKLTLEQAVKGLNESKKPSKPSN
How it was run: as §1

[1] = system: Serratia marcescens expressing IMP-1 (CL5741); type: cell-based; settings: IMP-1 strain CL5741, with imipenem 1 μg/ml, 95% inhibition of growth
How it was run: (§2)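 Colonies grown overnight on blood agar at 35° C were suspended in saline, diluted 1:100 into 1.1×CAMHB and dispensed. Imipenem was added to 1 μg/ml, then test compound. After 22 hours to 24 hours at 35° C, absorbance was recorded.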

[2] = system: Klebsiella pneumoniae expressing VIM-1 (IHMA599644); type: cell-based; settings: VIM-1 strain IHMA599644, with imipenem 1 μg/ml, 95% inhibition of growth
How it was run: as §2

[3] = system: Escherichia coli expressing NDM-1 (CLB30005, CLB30016); type: cell-based; settings: NDM-1 strain, with imipenem 1 μg/ml, 95% inhibition of growth
How it was run: as §2

[4] = system: Pseudomonas aeruginosa efflux− (MB9799), IMP-1; type: cell-based; settings: C, D serine β-lactamase inhibitor closely related to relebactam; for P. aeruginosa expressing IMP-1, efflux − (MB9799) MITC95: concentration restoring susceptibility to imipenem at 2 μg/mL in the presence of a class A; for Concentration of metallo-β-lactamase inhibitor which restores susceptibility of efflux − (MB9799) strain to imipenem: imipenem at 2 μg/mL, in the presence of a class A
How it was run: (§3)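 PAO1 pair, broth microdilution; fixed β-lactam (imipenem/ceftazidime) at ~CLSI breakpoint + fixed class A/C BLI for AmpC; serial MBLi titration; endpoint = MBLi conc. restoring susceptibility; MB9798:MB9799 ratio = efflux liability.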

[5] = system: Pseudomonas aeruginosa MB9798 vs MB9799
How it was run: as §3

VIM-1 = VIM-1 (Pseudomonas aeruginosa (strain ATCC 15692 / DSM 22644 / CIP 104116 / JCM 14847 / LMG 12228 / 1C / PRS 101 / PAO1), UniProt A0A0F7KYQ8); experiment: biochemical; settings: CCF2-FA substrate, 30 pM enzyme, 2 hours at 25° C.
How it was run: as §1

[6] = system: Pseudomonas aeruginosa efflux+ (MB9798), IMP-1; type: cell-based; parameters: Concentration of metallo-β-lactamase inhibitor which restores susceptibility of efflux + (MB9798) strain to imipenem: unit not given here; settings: C, D serine β-lactamase inhibitor closely related to relebactam; for P. aeruginosa expressing IMP-1, efflux + (MB9798) MITC95: concentration restoring susceptibility to imipenem at 2 μg/mL in the presence of a class A; for Concentration of metallo-β-lactamase inhibitor which restores susceptibility of efflux + (MB9798) strain to imipenem: imipenem at 2 μg/mL, in the presence of a class A
How it was run: as §3

[7] = fluorescence assay, read-out: IMP-1 IC50
[8] = ratio MITC95 PA_9798/MITC95 PA_9799
[9] = fluorescence assay, read-out: VIM-1 IC50
[10] = fold difference between efflux+ (MB9798) and efflux− (MB9799) strains, imipenem at 2 μg/mL

Sequence of NDM-1 (C7C422 whole entry, looked up, species assumed): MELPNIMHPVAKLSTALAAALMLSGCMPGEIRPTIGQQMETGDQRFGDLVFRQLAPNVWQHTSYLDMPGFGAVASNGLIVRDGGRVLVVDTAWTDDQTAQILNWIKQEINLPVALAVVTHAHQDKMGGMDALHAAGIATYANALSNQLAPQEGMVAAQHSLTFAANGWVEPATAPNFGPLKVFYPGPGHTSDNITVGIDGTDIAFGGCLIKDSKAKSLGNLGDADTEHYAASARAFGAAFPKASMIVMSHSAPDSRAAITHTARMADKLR

SMILES	IC50 (NDM-1) [nM]	IC50 (IMP-1; [7]) [nM]	Serratia marcescens MITC95 [1] [µM]	Klebsiella pneumoniae MITC95 [2] [µM]	Escherichia coli MITC95 [3] [µM]	P. aeruginosa expressing IMP-1, efflux − (MB9799) MITC95 [4] [µM]	Efflux ratio [5, 8]	IC50 (VIM-1; [9]) [nM]	P. aeruginosa expressing IMP-1, efflux + (MB9798) MITC95 [6] [µM]	IC50 (VIM-1; VIM-1 IC50, fluorescence assay) [nM]	IC50 (IMP-1; IMP-1 IC50, fluorescence assay) [nM]	Concentration of metallo-β-lactamase inhibitor which restores susceptibility of efflux − (MB9799) strain to imipenem [4]	Efflux ratio [5, 10]	Concentration of metallo-β-lactamase inhibitor which restores susceptibility of efflux + (MB9798) strain to imipenem [6]
C[C@H](CN)NS(=O)(=O)c1ccc(-c2cccn3ccnc23)c(-c2nn[nH]n2)c1S(N)(=O)=O [Example 384, (R)—N1-(1-aminopropan-2-yl)-4-(imidazo[1,2-a]pyridin-8-yl)-3-(2H -tetrazol-5-yl) benzene-1,2-disulfonamide]	0.0233	0.0539	3.125	3.125	1.563	1.563	0.50	0.0539	0.7813	–	–	–	–	–
NCc1nc2c(-c3ccc(S(=O)(=O)NC(CN)CN)c(S(N)(=O)=O)c3-c3nn[nH]n3)cccc2[nH]1 [Example 385, 4-(2-(Aminomethyl)-1H-benzo[d]imidazol-4-yl)-N1-(1,3-diaminopropan-2-yl)-3-(2H-tetrazol-5-yl)benzene-1,2-disulfonamide]	0.111	0.782	0.7813	1.563	0.7813	0.7813	1.00	0.13	0.7813	–	–	–	–	–
NCC(CN)NS(=O)(=O)c1ccc(-c2cccn3ccnc23)c(-c2nn[nH]n2)c1S(N)(=O)=O [Example 386, N1-(1,3-diaminopropan-2-yl)-4-(imidazo[1,2-c]pyridin-8-yl)-3-(2H-tetrazol-5-yl) benzene-1,2-disulfonamide]	0.133	0.141	1.563	3.125	0.9766	1.563	1.00	–	1.563	0.168	–	–	–	–
C[C@@H](CN)NS(=O)(=O)c1ccc(-c2cccc3sc(N)nc23)c(-c2nn[nH]n2)c1S(N)(=O)=O [Example 389, 4-(2-amino-1,3-benzothiazol-4-yl)-N^1-[(1S)-2-amino-1-methylethyl]-3-(2H-tetrazol-5-yl)benzene-1,2-disulfonamide]	0.289	–	3.125	3.125	3.125	–	–	–	–	0.744	1.81	1.563	1.00	1.563
C[C@@H](N)CNS(=O)(=O)c1ccc(-c2cccc3sc(N)nc23)c(-c2nn[nH]n2)c1S(N)(=O)=O [Example 390, 4-(2-amino-1,3-benzothiazol-4-yl)-N^1-[(2R)-2-aminopropyl]-3-(2H-tetrazol-5-yl)benzene-1,2-disulfonamide]	0.0605	–	1.563	3.125	3.125	–	–	–	–	0.33	0.341	1.563	0.50	0.7813
C[N+](C)(C)CCNS(=O)(=O)c1ccc(-c2cccc3sc(N)nc23)c(-c2nnn[nH]2)c1S(N)(=O)=O.O=C([O-])C(F)(F)F [Example 391, 2-({[4-(2-amino-1,3-benzothiazol-4-yl)-2-sulfamoyl-3-(1H-tetrazol-5-yl)phenyl]sulfonyl}amino)-N,N,N-trimethylethanaminium trifluoroacetate]	0.028	–	3.125	6.25	3.125	–	–	0.0965	–	–	0.209	1.563	1.00	1.563
C[C@H](CN)NS(=O)(=O)c1ccc(-c2ccc(N)nc2)c(-c2nn[nH]n2)c1S(N)(=O)=O [Example 393, (R)—N^1-(1-aminopropan-2-yl)-4-(6-aminopyridin-3-yl)-3-(2H-tetrazol-5-yl)benzene-1,2-disulfonamide]	0.0219	0.0629	1.042	2.083	0.651	–	–	0.0454	–	–	–	1.042	0.75	0.7813
C[C@@H](CN)NS(=O)(=O)c1ccc(-c2ccc(N)nc2)c(-c2nn[nH]n2)c1S(N)(=O)=O [Example 394]	1.89	2	1.563	3.125	0.3906	–	–	1.24	–	–	–	1.563	2.00	3.125
C[C@H](CN)NS(=O)(=O)c1ccc(-c2cccc3c2nc(N)n3C)c(-c2nn[nH]n2)c1S(N)(=O)=O [Example 395]	0.0315	0.156	1.563	1.563	0.3906	–	–	–	–	0.108	–	0.7813	2.00	1.563
C[C@@H](CN)NS(=O)(=O)c1ccc(-c2ccnc(N)c2)c(-c2nn[nH]n2)c1S(N)(=O)=O [Example 398]	2.54	7.45	1.563	3.125	3.125	–	–	0.939	–	–	–	1.563	4.00	6.25
